Biological target: human dihydroorotate dehydrogenase (HsDHODH) (Homo sapiens, UniProt Q02127)
Format: biochemical

Chain of human dihydroorotate dehydrogenase (HsDHODH) (Q02127 whole entry): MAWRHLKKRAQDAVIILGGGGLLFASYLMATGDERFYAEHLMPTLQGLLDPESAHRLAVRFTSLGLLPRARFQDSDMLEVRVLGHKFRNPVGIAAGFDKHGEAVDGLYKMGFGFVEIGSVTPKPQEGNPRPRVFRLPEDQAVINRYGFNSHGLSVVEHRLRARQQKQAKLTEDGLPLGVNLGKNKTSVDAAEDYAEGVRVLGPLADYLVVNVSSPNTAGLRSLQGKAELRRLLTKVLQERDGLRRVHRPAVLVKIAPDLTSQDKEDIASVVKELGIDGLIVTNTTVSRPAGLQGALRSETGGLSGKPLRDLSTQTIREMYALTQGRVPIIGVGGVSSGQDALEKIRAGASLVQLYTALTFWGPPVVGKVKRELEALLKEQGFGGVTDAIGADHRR

- IC50: 121 ± 6.78 µM
Compound: O=C(/C=C/c1ccc(O)c(O)c1)OCCc1ccccc1 [CAPE, caffeic acid phenethyl ester]
